The target of experiment [1] is T1, PfATP6 (Plasmodium falciparum, UniProt Q08853). Kind of experiment: Yeast whole-cell growth inhibition (functional rescue) assay, K667[PfATP6]. On the set-up: pUGpd containing the yeast-optimized coding region of PfATP6 from Plasmodium falciparum; expressed in transfected cells; host or cells: Saccharomyces cerevisiae K667 and K667Δpdr5::HIS. It counts as cell-based. As for the experimental part: (§1) The screening assay used here was developed from the protocol used by Pulcini et al. ([13]). A single colony of the yeast strain to be screened was picked and grown in 5 mL of selective medium until stationary phase was reached. The culture was diluted 100-fold in ampicillin-supplemented yeast extract-peptone-dextrose (YPD) medium to an OD at 620 nm (OD620) equivalent to that of lag phase. YPD medium was supplemented with an appropriate concentration of calcium, depending on the transformed strain. […] The optimal calcium concentration was periodically monitored and, if necessary, adjusted using a calcium concentration range of 10 to 30 mM. A final volume of 200 μL of the yeast culture was added to each well of a 96-well plate, with 5 technical replicates included per inhibitor. All inhibitors were dissolved in dimethyl sulfoxide (DMSO) unless otherwise stated. […] The 96-well plates were incubated at 30°C for 42 h. The yeast growth was estimated from the absorbance at 620 nm in a Tecan plate reader. Growth was normalized with the no-drug control to present data as percent growth. The data collected were analyzed using GraphPad Prism v9.0 (GraphPad software, San Diego, CA, U.S.A).
T1 sequence (Q08853 whole entry): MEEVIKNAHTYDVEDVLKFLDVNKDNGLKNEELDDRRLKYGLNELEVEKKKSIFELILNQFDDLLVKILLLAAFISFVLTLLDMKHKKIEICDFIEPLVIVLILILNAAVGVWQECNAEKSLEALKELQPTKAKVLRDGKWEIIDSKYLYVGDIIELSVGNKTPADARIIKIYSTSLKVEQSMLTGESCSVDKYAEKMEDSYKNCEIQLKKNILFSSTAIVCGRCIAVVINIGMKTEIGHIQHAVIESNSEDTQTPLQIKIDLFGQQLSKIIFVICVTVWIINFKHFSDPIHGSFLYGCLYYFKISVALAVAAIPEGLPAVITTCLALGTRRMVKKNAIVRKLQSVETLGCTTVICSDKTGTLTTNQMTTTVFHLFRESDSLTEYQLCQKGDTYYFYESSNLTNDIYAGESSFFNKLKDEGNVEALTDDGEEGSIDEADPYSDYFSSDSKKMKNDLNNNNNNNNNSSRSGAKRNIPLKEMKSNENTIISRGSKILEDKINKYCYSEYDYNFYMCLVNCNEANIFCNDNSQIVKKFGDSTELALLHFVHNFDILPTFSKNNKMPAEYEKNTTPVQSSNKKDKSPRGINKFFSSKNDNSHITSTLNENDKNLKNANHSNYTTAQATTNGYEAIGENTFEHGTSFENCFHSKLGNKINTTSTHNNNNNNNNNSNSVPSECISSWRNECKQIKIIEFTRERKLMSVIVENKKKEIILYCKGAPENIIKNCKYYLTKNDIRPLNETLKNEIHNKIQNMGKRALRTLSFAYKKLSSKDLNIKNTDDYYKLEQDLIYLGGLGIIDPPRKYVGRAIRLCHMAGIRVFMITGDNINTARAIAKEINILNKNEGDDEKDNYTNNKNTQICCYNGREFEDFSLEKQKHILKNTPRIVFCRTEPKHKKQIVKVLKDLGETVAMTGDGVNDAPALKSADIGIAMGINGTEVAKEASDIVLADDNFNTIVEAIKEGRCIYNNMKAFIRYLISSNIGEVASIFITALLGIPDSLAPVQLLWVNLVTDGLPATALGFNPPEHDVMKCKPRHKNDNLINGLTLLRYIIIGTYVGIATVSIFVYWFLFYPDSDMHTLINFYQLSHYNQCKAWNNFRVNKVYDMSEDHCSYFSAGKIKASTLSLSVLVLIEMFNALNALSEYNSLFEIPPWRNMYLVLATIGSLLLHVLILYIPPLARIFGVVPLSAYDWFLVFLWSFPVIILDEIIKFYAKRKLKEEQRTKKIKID

The target in experiment [2] is T1, PfATP6. Nature of the experiment: cell-based. The class given is cell-based. On the set-up: pUGpd containing the yeast-optimized coding region of PfATP6 from Plasmodium falciparum; expressed in transfected cells; host or cells: Saccharomyces cerevisiae K667 and K667Δpdr5::HIS. The note with it: for Fold difference: IC50 K667[PfATP6] versus K667Δpdr5[PfATP6]; for inhibition of PfATP6 in compound screen: growth inhibition, K667Δpdr5[PfATP6]. As for the experimental part: as §1

Experiment [3] concerns cytosolic Ca2+ concentration in parasites. Nature of the experiment: Parasite calcium homeostasis (YC-Nano biosensor, flow cytometry). The class given is cell-based, Plasmodium falciparum. Particulars: 25 μM, YC-Nano-expressing parasites. How it is done:
Three biological replicates were carried out, after an initial blinded experiment.

For experiment [4], the target named is T1, PfATP6. Kind of experiment: DHA-biotin labeling / pulldown, Western blot and mass spectrometry. It counts as binding. On the set-up: pUGpd containing the yeast-optimized coding region of PfATP6 from Plasmodium falciparum; expressed in transfected cells; host or cells: Saccharomyces cerevisiae K667 and K667Δpdr5::HIS. How it is done:
Both whole yeast and microsomes were prepared for mass spectrometric analysis by addition of 500 nM biotin-tagged DHA probe to 200 μL (∼0.6 mg protein) of yeast microsome preparation or 10 μM probe to 50 to 100 mL yeast culture at an OD620 of 1.0 to 1.5 (∼35 to 70 mg total protein) and incubation for 4 h at 30°C. For competition studies, 25× artesunate was added and incubated for 30 min before addition of the probe and incubation for 4 h at 30°C. Samples were then acetone precipitated by adding 4 volumes of −20°C acetone/water (4:1) to the yeast pellet or microsomal pellet and incubating the mixture for 2 h to overnight at −20°C. The samples were then pelleted at 13,000 to 16,000 × g for 10 min at 0°C to 4°C and washed twice with −20°C acetone/water solution. After a final centrifugation, pellets were dried in a freeze-drier for 1 h. Subsequent pulldowns and liquid chromatography-tandem mass spectrometry were performed as described by Wang et al. ([18]).
A 0.3-mg aliquot of PfATP6-enriched membrane vesicles, as well as an aliquot of SERCA1a and vector-only membrane vesicles, were thawed on ice. One-half of each aliquot (0.15 mg) was preincubated with 12.5 μM artesunate at 30°C for 30 min. Then, all samples had 500 nM DHA-biotin probe added (NewChem Technologies) and were incubated at 30°C for 4 h. […] Blots were analyzed using the Odyssey scanner system. […]
Background: In western blotting, separated proteins are transferred to a membrane and probed.

In another experiment the test system is Plasmodium falciparum. Kind of experiment: In vitro parasite assay ([3H]hypoxanthine uptake). The class given is cell-based. Particulars: parasites in vitro, read-out: antiparasitic potency IC50. As for the experimental part:
Inhibitor IC50s were calculated in parasite assays following the protocol described by Desjardins et al. ([52]). Briefly, cultures were synchronized to ring stage by D-sorbitol lysis, using a 5% D-sorbitol solution. The parasites were diluted to a final parasitemia of 1%. Hypoxanthine-free medium was added to give a hematocrit level of 4%. A 2-fold dilution series of the inhibitors in hypoxanthine-free medium was prepared, and 100 μL of each inhibitor concentration was seeded in a 96-well plate, with 5 technical replicates of each included. Two no-inhibitor controls, i.e., hypoxanthine-free medium only, were included. Plates were incubated at 37°C in 5% CO2 for 24 h. After 24 h, [^3H]hypoxanthine was added to each well to a final concentration of 0.5 μCi/well, and the plates were incubated for a further 24 h. Plates were then freeze-thawed to lyse the cells, and the [^3H]hypoxanthine uptake was measured in a Beckman scintillation counter.

The target of experiment [5] is T1, PfATP6. Kind of experiment: In vitro activity assay, PfATP6 (membrane-bound). On the set-up: pUGpd containing the yeast-optimized coding region of PfATP6 from Plasmodium falciparum; expressed in transfected cells. It counts as biochemical. The note with it: 1 μM free calcium. How it is done: Activity assays were performed as described by Longland et al. ([55]) and LeBel et al. ([56]), except that the reaction mixtures were incubated at 30°C instead of 37°C. […] Then, 5.8 mM ATP was added and incubated for an additional 15 min at 30°C. The reaction was stopped with 0.5 mL 6.5% trichloroacetic acid (TCA) on ice, and the mixture was centrifuged at 4°C for 10 min at 16,000 × g; 0.5 mL of the supernatant was added to 1.5 mL of copper acetate buffer (0.25% copper sulfate pentahydrate, 4.6% sodium acetate trihydrate, dissolved in 2 M acetic acid [pH 4.0]) and mixed by vortex-mixing before the addition of 0.25 mL of 5% ammonium molybdate, followed by 0.25 mL METOL buffer (2% p-methyl-aminophenol sulfate, 5% sodium sulfite). Samples were incubated for 10 min, and the absorbance was measured at 870 nm in a spectrophotometer. The Pi standard was 0.4387 g/100 mL KH2PO4.

Marks after values point to notes of the source that are not given here.

What is called IC50 is the concentration needed to halve the response being measured. What is called IC80 is the point of the concentration-response curve where the effect stands at 80%. As to `CO[C@H]1O[C@@H]2O[C@@]3(C)CC[C@H]4[C@H](C)CC[C@@H]([C@H]1C)[C@@]24OO3` [Artemether], the IC50 at PfATP6 [1] turned out to be 15.7 µM. Moreover, on PfATP6 [2], the IC50 was determined as 3.4 µM and the Fold difference is reported as 5^e. Further, the “approximate IC10” value on PfATP6 [2] (fitness cost assays, drug pressure) is about 1 µM. In addition, on PfATP6 [2] (read-out: approximate yeast IC80), the IC80 was about 1 µM.

For `C[C@@H]1CC[C@H]2[C@@H](C)C(=O)O[C@@H]3O[C@@]4(C)CC[C@@H]1[C@]32OO4` [Artemisinin], the half-inhibitory concentration (IC50) on PfATP6 [1] came out at 10.6 µM; against PfATP6 [2], 1.8 µM.

For the compound `C[C@H]1[C@H](N2CCS(=O)(=O)CC2)O[C@@H]2O[C@@]3(C)CC[C@H]4[C@H](C)CC[C@@H]1[C@@]24OO3` [Artemisone], the “change in cytosolic Ca2+ concentration” value in experiment [3] is “significantly increased”; in experiment [3] (listed as artemisone), “sustained elevation”. In addition, the IC50 was 3.6 µM against PfATP6 [1] and 0.9 µM on PfATP6 [2]. Further, the Fold difference at PfATP6 [2] is 4^c.

`C[C@H]1[C@H](OC(=O)CCC(=O)O)O[C@@H]2O[C@@]3(C)CC[C@H]4[C@H](C)CC[C@@H]1[C@@]24OO3` [Artesunate]: the midpoint of inhibition against PfATP6 [1], the IC50, lay at 14.8 µM. Moreover, on PfATP6 [2], the IC50 came out at 3.7 µM and the Fold difference is reported as 4^d. Further, at PfATP6 [4] (preincubation with excess artesunate), the “competition with tagged DHA for PfATP6” value is “competed with the tagged DHA”.

Consider `C[C@H]1[C@@H](O)O[C@@H]2O[C@@]3(C)CC[C@H]4[C@H](C)CC[C@@H]1[C@@]24OO3` [DHA, dihydroartemisinin], for which the IC50 in the experiment on Plasmodium falciparum is 0.0025 µM; against PfATP6 [1], 23.8 µM; against PfATP6 [2], 2.1 µM. The “in vitro activity of PfATP6 versus no drug control” value on PfATP6 [5] is “No significant”. Also, the Fold difference on PfATP6 [2] is 11^c.

As for `Oc1ccc(O)cc1` [benzohydroquinone], at PfATP6 [2], the “inhibition of PfATP6 in compound screen” value is “limited success”.

For `CC1CCC2C(C)C(OC(=O)CCOCCOCCOCCOCCNC(=O)CCCCC3SCC4NC(=O)NC43)OC3OC4(C)CCC1C32OO4` (stereo not drawn) [biotin-derivatized DHA], the IC50 in the experiment with Plasmodium falciparum amounted to 0.005 µM. In addition, the “alkylation/labeling of PfATP6” value at PfATP6 [4] (membrane extracts and whole yeast, K667[PfATP6], mass spectrometry) was “alkylated”.

Consider `C[C@@H]1CC[C@H]2[C@@H](C)C(=O)O[C@@H]3O[C@@]4(C)CC[C@@H]1[C@]32O4` [deoxyartemisinin], for which the “in vitro activity of PfATP6 versus no drug control” value on PfATP6 [5] is given as “No significant”.

In the case of `Cc1cc(O)c2c(=O)c3c(O)cc(O)c4c5c(O)cc(O)c6c(=O)c7c(O)cc(C)c8c1c2c(c34)c(c78)c65` [hypericin], the “inhibition of PfATP6 in compound screen” value against PfATP6 [2] is “limited success”.

`C[C@H]1O[C@@H](O[C@H]2CC[C@@]3(C)[C@@H](CC[C@]4(C)[C@@H]3C=C[C@]35OC[C@@]6(CCC(C)(C)C[C@H]63)[C@H](O)C[C@]54C)[C@]2(C)CO)[C@H](O)[C@@H](O[C@@H]2O[C@H](CO)[C@@H](O)[C@H](O)[C@H]2O)[C@H]1O` [saikosaponin, Saikosaponin D]: the “concentration at which PfATP6 was inhibited” value on PfATP6 [2] (inhibited only at high concentrations) is over 100 µM.

Source of the values: publication PMC9112895, “Selective Inhibition of Plasmodium falciparum ATPase 6 by Artemisinins and Identification of New Classes of Inhibitors after Expression in Yeast” (Antimicrobial Agents and Chemotherapy, 2022).
